{
  "source": "patent US20260374742A1",
  "about": "“METHODS OF PREPARING CARBAMATE DERIVATIVES” (NodThera Limited, priority 2022, published 2026)",
  "origin": "cited, not measured here",
  "data": [
    {"test_system": "NLRP3 inflammasome", "settings": "literature report", "values": [
      {"molecule": "COc1ccc(Cl)cc1C(=O)NCCc1ccc(S(=O)(=O)NC(=O)NC2CCCCC2)cc1", "note": "[Glyburide]", "inhibition of NLRP3 activation (in words)": "specific inhibitor of NLRP3 activation"},
      {"molecule": "OC[C@H]1O[C@@H](c2ccc(Cl)c(Cc3ccc(O[C@H]4CCOC4)cc3)c2)[C@H](O)[C@@H](O)[C@@H]1O", "note": "[epigliflozin]", "inhibition of NLRP3 activation (in words)": "impair NLRP3 activation"},
      {"molecule": "CC(C)(O)c1coc(S(=O)(=O)NC(=O)Nc2c3c(cc4c2CCC4)CCC3)c1", "note": "[CP-456,773]", "inhibition of NLRP3 activation (in words)": "specific inhibitor of NLRP3 activation"},
      {"molecule": "O=c1c(O)c(-c2ccc(O)c(O)c2)oc2cc(O)cc(O)c12", "note": "[quercetin]", "inhibition of NLRP3 activation (in words)": "suppress NLRP3 activation"},
      {"molecule": "CNCCC(Oc1ccc(C(F)(F)F)cc1)c1ccccc1", "note": "(stereo not shown) [fluoxetine]", "inhibition of NLRP3 activation (in words)": "impair NLRP3 activation"},
      {"molecule": "salvianolic acid", "inhibition of NLRP3 activation (in words)": "suppress NLRP3 activation"},
      {"molecule": "OC(CNCC(O)C1CCc2cc(F)ccc2O1)C1CCc2cc(F)ccc2O1", "note": "(stereo not shown) [nebivolol]", "inhibition of NLRP3 activation (in words)": "impair NLRP3 activation"},
      {"molecule": "C=C1C(=O)O[C@H]2[C@H]1CC/C(C)=C/CC[C@@]1(C)O[C@@H]21", "note": "[parthenolide]", "inhibition of NLRP3 activation (in words)": "impair NLRP3 activation"},
      {"molecule": "C[S+]([O-])CCCCN=C=S", "note": "(stereo not shown) [sulforaphane]", "inhibition of NLRP3 activation (in words)": "suppress NLRP3 activation"},
      {"molecule": "Cc1ccc(S(=O)(=O)/C=C/C#N)cc1", "note": "[Bay 11-7082]", "inhibition of NLRP3 activation (in words)": "impair NLRP3 activation"},
      {"molecule": "O=[N+]([O-])C=Cc1ccc2c(c1)OCO2", "note": "[3,4-methylenedioxy-β-nitrostyrene]", "inhibition of NLRP3 activation (in words)": "impair NLRP3 activation"},
      {"molecule": "NC[C@@H]1O[C@H](c2ccccc2)Cc2c1ccc(O)c2O", "note": "[A-68930]", "inhibition of NLRP3 activation (in words)": "impair NLRP3 activation"}
    ]},
    {"test_system": "NLRP3 inflammasome", "settings": "literature; concentrations unlikely attainable in vivo", "values": [
      {"molecule": "COc1ccc(Cl)cc1C(=O)NCCc1ccc(S(=O)(=O)NC(=O)NC2CCCCC2)cc1", "note": "[Glyburide]", "concentrations at which NLRP3 activation is inhibited (in words)": "micromolar concentrations"}
    ]}
  ]
}
